Measurements as given in US9206241B2, “Modified prokaryotic ubiquitin-like protein and methods of use thereof” (priority 2012, dated 2015).

Tests used:
[1] = molecular target: Dop (deamidase of Pup), Dop-His6 (Mycobacterium tuberculosis, UniProt P9WNU9); details: for Km / kcat: Dop kinetics with synthetic substrate, n.a. = no activity
Excerpt: SoftMax Pro (Molecular Devices) was used to measure the data and GraphPad Prism was used to fit the kinetic data.

lysates of E. coli = test: Hydrolysis of substrate in E. coli lysates; type: biochemical

Chain of Dop (deamidase of Pup), Dop-His6 (P9WNU9 whole entry): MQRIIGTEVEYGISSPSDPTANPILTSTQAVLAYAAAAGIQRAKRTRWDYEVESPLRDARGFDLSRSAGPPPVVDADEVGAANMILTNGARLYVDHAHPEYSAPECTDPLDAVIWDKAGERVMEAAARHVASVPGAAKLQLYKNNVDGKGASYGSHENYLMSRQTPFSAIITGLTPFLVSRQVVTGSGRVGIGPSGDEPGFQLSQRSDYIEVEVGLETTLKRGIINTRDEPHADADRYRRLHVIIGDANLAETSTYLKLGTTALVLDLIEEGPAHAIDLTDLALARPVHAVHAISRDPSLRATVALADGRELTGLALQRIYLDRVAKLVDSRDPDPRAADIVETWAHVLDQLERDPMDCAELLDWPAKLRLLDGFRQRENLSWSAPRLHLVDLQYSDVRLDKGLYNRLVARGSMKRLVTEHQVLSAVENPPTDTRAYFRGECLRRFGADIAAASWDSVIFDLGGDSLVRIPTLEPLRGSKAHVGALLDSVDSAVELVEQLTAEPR

Row | Substance | Km [1] | kcat [1] | hydrolysis of substrate in lysate (lysates of E. coli) | hydrolytic activity of Dop on the substrate (cleavage of AMC) ([1]; increase in fluorescence over time)
1 | EETDDLLDEIDDVLEENAEDFVRAYVQKGG-Glu(AMC) [1b] | 0.75 ± 0.08 µM | 0.0113 ± 0.00033 s⁻¹ | – | –
2 | MAQEQTKRGGGGGDDDDIAGSTAAGQERREKLTEETDDLLDEIDDV LEENAEDFVRAYVQKGG-Glu(AMC) [1a] | 0.65 ± 0.07 µM | 0.01 ± 0.00033 s⁻¹ | could not hydrolyze | showed hydrolytic activity
